Measurements from patent US12544395B2, “Combination compositions comprising a beta-lactamase inhibitor and uses thereof” (priority 2018, dated 2026).
≈ marks a conversion by molar mass, not a printed value.

Columns and labels:
[1] = test system: E. coli 2806; test: Broth microdilution MIC (strain enzymes: SHV-12, TEM-1); format: cell-based; details: Escherichia coli, 2806; alone; read-out: MIC of ceftibuten (CTB)
[2] = test system: E. coli 3174; test: Broth microdilution MIC (strain enzymes: TEM-1, CTXM-15); format: cell-based; details: Escherichia coli, 3174; alone; read-out: MIC of ceftibuten (CTB)
[3] = test system: E. coli 3327; test: Broth microdilution MIC (strain enzymes: TEM-1, SHV-12); format: cell-based; details: Escherichia coli, 3327; alone; read-out: MIC of ceftibuten (CTB)
[4] = test system: E. coli ESBL 2; test: Broth microdilution MIC (strain enzymes: TEM-1); format: cell-based; details: Escherichia coli, ESBL2; alone; read-out: MIC of ceftibuten (CTB)
[5] = test system: E. coli ESBL 4; test: Broth microdilution MIC (strain enzymes: CTX-M15, TEM-1); format: cell-based; details: Escherichia coli, ESBL4; alone; read-out: MIC of ceftibuten (CTB)
[6] = test system: E. coli SI-AIRT-4; test: Broth microdilution MIC (strain enzymes: TEM-1); format: cell-based; details: Escherichia coli, SIAIRT4; alone; read-out: MIC of ceftibuten (CTB)
[7] = test system: E. coli 25922; test: Broth microdilution MIC (strain enzymes: None detected); format: cell-based; details: Escherichia coli, 25922; alone; read-out: MIC of ceftibuten (CTB)
[8] = test system: K. oxytoca 169219; test: Broth microdilution MIC (strain enzymes: TEM-1, CTXM-15); format: cell-based; details: Klebsiella oxytoca, 169219; alone; read-out: MIC of ceftibuten (CTB)
[9] = test system: K. pneumoniae 115468; test: Broth microdilution MIC (strain enzymes: TEM-1); format: cell-based; details: Klebsiella pneumoniae, 115468; alone; read-out: MIC of ceftibuten (CTB)
[10] = test system: K. pneumoniae ESBL 7 #1; test: Broth microdilution MIC (strain enzymes: SHV-12, TEM-1); format: cell-based; details: Klebsiella pneumoniae; alone; read-out: MIC of ceftibuten (CTB)
[11] = test system: K. pneumoniae ESBL 8 #2; test: as above; format: cell-based; details: Klebsiella pneumoniae; alone; read-out: MIC of ceftibuten (CTB)
[12] = test system: K. pneumoniae ESBL 7 #2; test: Broth microdilution MIC (strain enzymes: SHV-12, CTX-M15, TEM-1); format: cell-based; details: Klebsiella pneumoniae; alone; read-out: MIC of ceftibuten (CTB)
[13] = test system: K. pneumoniae KI (KCl); test: Broth microdilution MIC (strain enzymes: TEM-10); format: cell-based; details: Klebsiella pneumoniae; alone; read-out: MIC of ceftibuten (CTB)
[14] = test system: K. pneumoniae KP 3; test: Broth microdilution MIC (strain enzymes: SHV-1, TEM-1); format: cell-based; details: Klebsiella pneumoniae, KP3; alone; read-out: MIC of ceftibuten (CTB)
[15] = test system: K. pneumoniae KP 8; test: Broth microdilution MIC (strain enzymes: TEM-10, TEM-1, CTX-M15); format: cell-based; details: Klebsiella pneumoniae, KP8; alone; read-out: MIC of ceftibuten (CTB)
[16] = test system: K. pneumoniae SI-KP NO30; test: Broth microdilution MIC (strain enzymes: TEM-26b, SHV-60, SHV-26); format: cell-based; details: Klebsiella pneumoniae, SIKPNO30; alone; read-out: MIC of ceftibuten (CTB)
[17] = test system: K. pneumoniae BAA 1705; test: Broth microdilution MIC (strain KPC-producing); format: cell-based; details: Klebsiella pneumoniae, BAA1705; alone; read-out: MIC of ceftibuten (CTB)
[18] = test system: panel of ESBL-producing Enterobacteriaceae (40 strains); test: Broth microdilution MIC50/MIC90 summary over the panel; format: cell-based
[19] = test system: E. coli expressing TEM-1+CTX-M-15, CTX-M-15, and KPC-2+SHV-12; test: Murine ascending UTI model, three strains; format: in vivo, mice; details: mouse, in vivo
[20] = test system: three strains of E. coli expressing TEM-1+CTX-M-15, CTX-M-15, and KPC-2+SHV-12; test: MIC against the UTI test strains; format: cell-based; details: Escherichia coli; alone; read-out: Ceftibuten MICs
[21] = test system: 21 strains of Enterobacteriaceae expressing various beta-lactamases; test: MIC testing of thigh model strains; format: cell-based; details: read-out: ceftibuten MICs

`Nc1nc(/C(=C/CC(=O)O)C(=O)N[C@@H]2C(=O)N3C(C(=O)O)=CCS[C@H]23)cs1` [Ceftibuten, ceftibuten, reference compound] was tested, and the MIC [1] was 2 µg/mL, the MIC [2] was 0.5 µg/mL and the MIC [3] was 8 µg/mL. The MIC [4] was 8 µg/mL, the MIC [5] was greater than 32 µg/mL and the MIC [6] was 0.5 µg/mL. The MIC [7] was 0.25 µg/mL, the MIC [8] was 4 µg/mL and the MIC [9] was 8 µg/mL. The MIC [10] was 32 µg/mL, the MIC [11] was 16 µg/mL and the MIC [12] was greater than 32 µg/mL. It also gave an MIC [13] of 1 µg/mL, an MIC [14] of 2 µg/mL and an MIC [15] of 0.25 µg/mL. For the same compound, the MIC [16] was 0.25 µg/mL, the MIC [17] was 32 µg/mL and the MIC50 ([18]; read-out: Ceftibuten MIC50) was 8 µg/mL (≈ 19.5 µM). The MIC90 ([18]; read-out: Ceftibuten MIC90) was greater than 32 µg/mL, the “CFU reductions in the kidneys” value [19] was “minimal CFU reductions” and the MIC [20] was 8 to 64 µg/mL (≈ 19.5 to 156 µM). The MIC [21] was no less than 32 µg/mL.
